{
  "source": "patent US20180344715A1",
  "about": "“WNT/BETA-CATENIN SIGNAL TRANSDUCTION INHIBITORS AND THEIR USE IN TREATMENT OR PREVENTION OF DISEASES AND CONDITIONS LINKED WITH SAID TRANSDUCTION” (BERGEN TEKNOLOGIOVERFORING AS, priority 2015, published 2018)",
  "key": {"[1]": {"system": "HCT116 cells", "assay": "EdU label release assay, HCT116", "format": "cell-based", "conditions": "HCT116, 5 μM, 3 days", "protocol": "Two days later, cells were seeded singly onto 12 mm glass coverslips in 24-well plates. One day after, EdU was detected using the Click-iT® Plus EdU Alexa Fluor 488 Imaging Kit (Life Technologies, C10637) according to the manufacturer's protocol. For double staining of EdU and other proteins, the EdU stained cells were further used for immunofluorescence staining as described above. Intensity of EdU staining in paired cells were quantified by Photoshop CS6 software, unequal EdU distribution was considered when paired cells had intensity ratio higher than 2."}, "[2]": {"molecular_target": "T1, free GFP (Aequorea victoria, UniProt P42212)", "T1 construct": "expressed in transfected cells; host or cells: SW480", "assay": "MST ligand-binding assay, free GFP negative control", "conditions": "SW480 cell lysates, negative controls, two parallels", "protocol": "Ten million SW480 cells overexpressing GFP-tagged SHPRH or free GFP were lysed in 1 mL radioimmunoprecipitation assay (RIPA) buffer. Cell lysates were diluted in buffer A [50 mM Hepes buffer (pH 7.5), 5 mM DTT, 10 mM CaCl2), 50 mM NaCl, and 0.05% Tween-20] to a final concentration at which the fluorescent signals of the GFP proteins were similar and well above the detection limit of the Monolith NT.115 instrument (NanoTemper Technologies GmbH). Ten microliters of each receptor were mixed with 10 μL of the ligand at various concentrations from 100 μM to 3.05 nM. Specifically, the ligand (4 mM in 100% DMSO) was diluted 1:20 to a final concentration of 200 μM in buffer A (giving 5% DMSO). Ten microliters of the 200 μM ligand solution was further serially diluted 1:1 in 10 μL of buffer A supplemented with 5% DMSO to make a 16-sample dilution series down to 6.1 nM. Ten microliters of the cell lysate were added to 10 μL of each ligand solution. […] The fluorescence signal during the thermophoresis was monitored for 30 s, and the change in fluorescence was analyzed as thermophoresis with T-jump. The Kd was calculated by fitting a standard binding curve to the average of four independent dilution series."}, "[3]": {"molecular_target": "T2, SHPRH (Homo sapiens, UniProt Q149N8)", "T2 construct": "endogenous in cells; host or cells: SW480", "T2 sequence (Q149N8 whole entry)": "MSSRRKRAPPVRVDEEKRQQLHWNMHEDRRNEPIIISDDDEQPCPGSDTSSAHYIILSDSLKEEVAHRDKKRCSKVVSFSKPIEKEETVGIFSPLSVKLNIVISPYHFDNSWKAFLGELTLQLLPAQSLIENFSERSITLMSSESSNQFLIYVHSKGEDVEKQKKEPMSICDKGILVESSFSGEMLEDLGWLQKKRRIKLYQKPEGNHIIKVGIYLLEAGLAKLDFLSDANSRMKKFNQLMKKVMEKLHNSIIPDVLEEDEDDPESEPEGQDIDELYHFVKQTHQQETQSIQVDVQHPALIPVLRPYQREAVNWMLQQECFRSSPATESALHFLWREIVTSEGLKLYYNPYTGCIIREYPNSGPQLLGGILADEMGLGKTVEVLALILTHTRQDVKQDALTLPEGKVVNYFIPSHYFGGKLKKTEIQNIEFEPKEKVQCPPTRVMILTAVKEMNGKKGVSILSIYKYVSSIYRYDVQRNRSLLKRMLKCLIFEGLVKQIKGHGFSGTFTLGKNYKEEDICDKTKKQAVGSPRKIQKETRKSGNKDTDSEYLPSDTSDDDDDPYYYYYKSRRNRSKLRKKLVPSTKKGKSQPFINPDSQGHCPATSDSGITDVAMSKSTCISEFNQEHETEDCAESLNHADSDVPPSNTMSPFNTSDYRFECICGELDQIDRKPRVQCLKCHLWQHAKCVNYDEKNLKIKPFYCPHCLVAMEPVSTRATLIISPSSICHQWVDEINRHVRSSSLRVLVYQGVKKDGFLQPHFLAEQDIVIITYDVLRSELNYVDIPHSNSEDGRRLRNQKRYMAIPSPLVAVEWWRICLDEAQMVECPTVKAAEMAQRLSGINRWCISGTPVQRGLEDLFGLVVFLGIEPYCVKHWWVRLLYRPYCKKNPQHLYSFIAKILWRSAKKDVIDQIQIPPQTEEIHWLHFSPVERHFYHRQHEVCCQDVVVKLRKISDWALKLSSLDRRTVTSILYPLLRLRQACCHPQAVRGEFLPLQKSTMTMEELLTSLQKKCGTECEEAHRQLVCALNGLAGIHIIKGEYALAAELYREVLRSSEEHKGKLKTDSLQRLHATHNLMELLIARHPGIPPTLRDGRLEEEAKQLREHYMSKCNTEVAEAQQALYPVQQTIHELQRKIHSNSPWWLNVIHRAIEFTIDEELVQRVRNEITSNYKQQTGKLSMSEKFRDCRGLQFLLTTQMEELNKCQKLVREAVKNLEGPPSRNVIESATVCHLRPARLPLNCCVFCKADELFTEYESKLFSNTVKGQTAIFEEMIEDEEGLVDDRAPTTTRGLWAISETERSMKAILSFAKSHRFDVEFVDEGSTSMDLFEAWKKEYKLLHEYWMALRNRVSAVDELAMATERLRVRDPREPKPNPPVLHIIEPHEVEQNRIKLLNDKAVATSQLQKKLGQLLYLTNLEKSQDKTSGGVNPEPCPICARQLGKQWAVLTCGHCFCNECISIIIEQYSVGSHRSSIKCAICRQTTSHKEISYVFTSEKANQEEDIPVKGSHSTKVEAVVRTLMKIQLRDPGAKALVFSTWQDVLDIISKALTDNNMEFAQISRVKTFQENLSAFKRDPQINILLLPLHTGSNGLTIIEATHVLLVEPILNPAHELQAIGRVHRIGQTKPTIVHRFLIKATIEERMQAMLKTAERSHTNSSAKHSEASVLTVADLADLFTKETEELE", "assay": "SHPRH stability and ubiquitination in SW480 cells (cycloheximide, MG132)", "format": "cell-based", "conditions": "SW480, 5 μM", "description": "2D-DIGE images of the DARTS samples. […] Location of β-catenin binding motifs of indicated genes (left) and agarose gel analysis of ChIP-PCR reactions with indicated antibodies (right). d. Western blots of the CoIP samples of SW480 cells using indicated antibodies. e. […] WT, wild type; FL, full length. g. Overexpression of SHPRH in SW480 cells increases the ubiquitination level of β-catenin. h. […] Summary of the mechanisms by which axitinib blocks Wnt/β-catenin signaling.\nCulture cells were lysed in RIPA buffer (50 mM Tris-HCl, pH 7.4, 150 mM NaCl, 1% NP-40, 0.5% sodium deoxycholate, 0.1% SDS, 1 mM EDTA) containing freshly added protease inhibitors (Roche, 11836153001). Protein lysates were resolved in Novex 10% BisTris MiniGels (Life technologies, NP0303BOX) and transferred onto PVDF membranes with Pierce 1-Step Transfer Buffer (Thermo Fisher Scientific, 84731). […] Proteins were visualized and captured by a ChemiDOC XRS system and Quantity One software (Bio-Rad Laboratories).\nCells were harvested and re-suspended with 100 μl ice cold TBS (50 mM Tris-HCL pH 8.0, 150 mM NaCl) containing 2 μM N-Ethylmaleimide crystalline that was supplemented to all the following buffers. […] Following addition of 80 μl 2% SDS sample buffer containing 10 mM DTT (Sigma, D9779), the beads were boiled at 98° C. for 5 minutes and collected with Magnet, the supernatant was analyzed by Western blotting."}, "[4]": {"molecular_target": "T2, SHPRH", "assay": "Cellular thermal shift assay (CETSA), SHPRH", "format": "binding", "conditions": "SW480, 10 μM", "protocol": "CETSA in intact cells was performed according to the protocol previously described (Martinez Molina, D. et al., 2013, Science 341, 84-87). Briefly, SW480 cells were seeded equally in 2 T75 flasks and allowed to reach 80% confluence one day after. […] After trypsinization and PBS wash, cells were resuspended in 450 μl PBS containing freshly added protease inhibitors and equally divided between 7 tubes. Cells in each tube were heated at indicated temperatures for 3 minutes and kept at room temperature for 3 minutes. Heated cells were lysed by 3 cycles of freezing in liquid nitrogen (1 minute) and thawing in room temperature water (1 minute). The cell lysates were centrifuged at 20,000 g for 20 minutes at 4° C. The soluble fractions were isolated for Western blotting analysis."}, "[5]": {"system": "β-catenin", "assay": "Western blotting of β-catenin in SW480 cells", "format": "cell-based", "protocol": "Culture cells were lysed in RIPA buffer (50 mM Tris-HCl, pH 7.4, 150 mM NaCl, 1% NP-40, 0.5% sodium deoxycholate, 0.1% SDS, 1 mM EDTA) containing freshly added protease inhibitors (Roche, 11836153001). Protein lysates were resolved in Novex 10% BisTris MiniGels (Life technologies, NP0303BOX) and transferred onto PVDF membranes with Pierce 1-Step Transfer Buffer (Thermo Fisher Scientific, 84731). Membranes were developed by using Pierce Fast Western Blot Kit with ECL Substrate (Thermo Fisher Scientific, 35050) and primary antibodies (β-catenin, ab16051, 1:2000 Abcam; GAPDH, ab181602, clone EPR16891, 1:20000, Abcam; hemagglutinin, ab9134, 1:2000, Abcam; FLAG, ab1162, 1:1000, Abcam; ubiquitin, ab7254, clone Ubi-1, 1:5000, Abcam; SHPRH, ab80129, 1:1000, Abcam; non-phospho-(active) β-catenin (Ser33/37/Thr41), 4270, 1:1000, Cell Signaling Technology; phospho-3-catenin (Ser33/37/Thr41), 9561, 1:1000, Cell Signaling Technology; β-catenin-Thr41/Ser45, 9565, 1:1000, Cell Signaling Technology; MED23, BD550429, clone D27-1805, 1:500, BD Biosciences). Proteins were visualized and captured by a ChemiDOC XRS system and Quantity One software (Bio-Rad Laboratories)."}},
  "data": [
    {"smiles": "CNC(=O)c1ccccc1Sc1ccc2c(/C=C/c3ccccn3)n[nH]c2c1", "note": "[axitinib, N-Methyl-2-[[3-[(E)-2-pyridin-2-ylethenyl]-1H-indazol-6-yl]sulfanyl]benzamide]", "values": [
      {"measurement": "EdU ACD", "setting": "[1]", "value": "increased significantly"},
      {"measurement": "binding of the ligand to free GFP", "setting": "[2]", "value": "did not show any binding"},
      {"measurement": "stability of SHPRH", "setting": "[3]; 6 hours, with cycloheximide", "value": "increased"},
      {"measurement": "ubiquitination level of SHPRH", "setting": "[3]; MG132, 6 hours", "value": "decreased"},
      {"measurement": "direct binding in intact living cells", "setting": "[4]", "value": "confirmed"},
      {"measurement": "phosphorylated and non-phospho (active) β-catenin (ABC)", "setting": "[5]; APC mutant SW480 cells, 24 hours", "value": "reduced"},
      {"measurement": "β-catenin level (Western blots)", "setting": "[5]; SW480, dose course 24 hours, time course at 5 μM", "value": "dose and time dependent decrease"}
    ]}
  ]
}
